# Measurements taken from patent publication US20180133186A1, “PREVENTATIVE TREATMENT OF ALZHEIMER'S DISEASE” (priority 2016, published 2018).
# Where two headings read alike, the source gives them in different places.
# Legend:
# CVN-AD mice [1] = assay: 2-day radial arm water maze in CVN-AD mice; format: in vivo, mouse; details: n=12
# Excerpt: Alzheimer's disease (CVN-AD) mice are modified non-human warm-blooded vertebrate animals in which a biologically active human APP polypeptide is expressed, and in which function of its inducible Nitric Oxide Synthase (iNOS) protein is reduced as compared to a non-modified animal. CVN-AD mice are described in U.S. Patent Publication No. 20090081128, the contents of which are incorporated by reference in their entirety. […] (2) Aβ deposition around blood vessels resembling pathology observed in humans with cerebral amyloid angiopathy ([…].); (3) hyperphosphorylated and aggregated mouse tau; neuronal loss; worsening behavioral deficits with time (Colton, C.); and (4) significant hippocampal and fornix volume loss (Badea, A.). […] This age in the CVN-AD mouse model is considered as representative of early Alzheimer's disease in humans (Colton, C.). The number of mice in each group is 12.
# Abeta peptides = assay: Abeta 40 and Abeta 42 peptides in whole brain lysates of CVN-AD mice; format: in vivo, mouse; details: DFMO 0.3 or 30 mg/kg vs water, n=12
# Excerpt: The average levels of soluble Abeta 42 peptide and soluble Abeta40 peptide (plus and minus the standard error of the mean) measured in whole brain lysates are shown in FIG. 3B. […] The number of mice for each group was 12.
# ornithine decarboxylase = target: T1, ornithine decarboxylase (Mus musculus, UniProt P00860); assay: Whole brain lysate metabolite levels related to ornithine decarboxylase activity; format: in vivo
# T1 construct: from tissue; host or cells: brain of CVN-AD mice (in vivo dosing; whole brain lysates analysed for metabolites)
# T1 sequence (P00860 1-461): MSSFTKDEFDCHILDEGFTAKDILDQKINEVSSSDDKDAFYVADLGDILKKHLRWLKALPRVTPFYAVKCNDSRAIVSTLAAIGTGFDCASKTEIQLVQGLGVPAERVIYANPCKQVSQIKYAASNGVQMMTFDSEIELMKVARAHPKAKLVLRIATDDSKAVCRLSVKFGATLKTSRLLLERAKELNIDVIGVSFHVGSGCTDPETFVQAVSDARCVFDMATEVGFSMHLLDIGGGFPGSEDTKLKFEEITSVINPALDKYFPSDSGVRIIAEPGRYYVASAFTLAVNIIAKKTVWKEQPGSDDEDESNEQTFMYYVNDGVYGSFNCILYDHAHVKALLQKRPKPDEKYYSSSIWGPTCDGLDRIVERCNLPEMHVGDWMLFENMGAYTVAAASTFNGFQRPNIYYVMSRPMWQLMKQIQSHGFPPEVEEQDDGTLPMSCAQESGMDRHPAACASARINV
# Protocol: (§1) This example was carried out as schematically illustrated in FIG. 1. […] Brains from each mouse were harvested at the end the third day of the rotorod procedure. Brain tissue lysates from each mouse in the experiment were used to determine the levels of Abeta 40 and Abeta 42 peptides and brain metabolites.
# Humans with Alzheimer's disease show elevation of these metabolites (Inoue K).
# CVN-AD mice [2] = format: in vivo
# Protocol: as §1
# humans [3] = assay: Predicted dosage for Alzheimer's Clinical Trial; format: in vivo, human; details: 6 mos-4 yrs
# CVN-AD mice [4] = system: CVN-AD mice
# [5] = system: Trypanosoma brucei gambiense; details: cited from earlier work; for effective dosage for successful treatment of trypanosomiasis: humans
# Normal volunteers = details: cited from earlier work
# melanoma [6] = details: cited from earlier work
# melanoma [7] = details: 6 g/m^2/d oral escalated to 12 g/m^2/d, n = 24; cited from earlier work
# humans [8] = details: cited from earlier work
# Metastatic liver = details: cited from earlier work
# [9] = 30 mg/kg, average +/- sem, n = 11-12 mice
# [10] = 14. g/m^2/d (400 mg/kg/day) IV, n = 1055
# [11] = 14.8 g/m^2/d (400 mg/kg/day) ORAL, n = 25
# [12] = oral delivery [Lipton A] [Pasic T R]
# [13] = 2 g/m^2/d oral, n = 16, 75 days
smiles,measurement,setting,value
"NCCC[C@](N)(C(=O)O)C(F)F [DFMO, alpha-difluoromethylornithine]","average number of errors in finding an escape platform after 2 days of trials, radial arm water maze",CVN-AD mice [1]; 0.3 mg/kg (0.9 mg/m^2) oral gavage 3x/wk 14 weeks vs water only,statistically significantly decreased
same,"average number of errors in finding an escape platform after 2 days of trials, radial arm water maze",CVN-AD mice [1]; 30 mg/kg (92.5 mg/m^2) oral gavage 3x/wk 14 weeks vs water only,more so
same,average level of insoluble Abeta40 peptide in whole brain lysates,Abeta peptides,No significant change
same,average level of insoluble Abeta 42 peptide in whole brain lysates,Abeta peptides,No significant change
same,soluble Abeta 40 levels in whole brain lysates,Abeta peptides,statistically significantly decreased
same,"Observed difference, putrescine (p; significantly decreased with DFMO-treatment)",ornithine decarboxylase; 30 mg/kg vs water only,p < 0.05
same,"Observed difference, spermidine (p; significantly decreased with DFMO-treatment)",ornithine decarboxylase; 30 mg/kg vs water only,p < 0.01
same,"putrescine, CVN-AD brain lysate levels DFMO-treated",ornithine decarboxylase; [9],0.49 ± 0.02 µM/g
same,"spermidine, CVN-AD brain lysate levels DFMO-treated",ornithine decarboxylase; [9],12.2 ± 0.63 µM/g
same,brain levels of putrescine compared to untreated CVN-AD mice,ornithine decarboxylase; DFMO treatment,significantly lower
same,brain levels of spermidine compared to untreated CVN-AD mice,ornithine decarboxylase; DFMO treatment,significantly lower
same,brain levels of spermine compared to untreated CVN-AD mice,ornithine decarboxylase; DFMO treatment,significantly lower
same,Dose limiting events,"CVN-AD mice [2]; 0.3 mg/kg, 14 wks",none
same,On target in brain,"CVN-AD mice [2]; 0.3 mg/kg, 14 wks",yes
same,Dose limiting events,"CVN-AD mice [2]; 10 mg/kg, 14 wks",none
same,On target in brain,"CVN-AD mice [2]; 10 mg/kg, 14 wks (data not shown)",yes (data not
same,Dose limiting events,"CVN-AD mice [2]; 30 mg/kg, 14 wks",none
same,On target in brain,"CVN-AD mice [2]; 30 mg/kg, 14 wks",yes
same,adverse events in DFMO treated CVN-AD mice,CVN-AD mice [2]; dose range 0.9 to 90 mg/m2/d,No observable adverse events
same,Predicted Dose limiting effects,humans [3]; estimated human dose 36 mg/m^2 daily,none
same,Predicted Dose limiting effects,humans [3]; estimated human dose 109 mg/m^2 daily,none
same,Predicted Dose limiting effects,humans [3]; estimated human dose 328 mg/m^2 daily,none
same,average number of seconds on the rotorod over 3 days of testing,CVN-AD mice [4]; DFMO 0.3 or 30 mg/kg vs water only,No change
same,toxic effect on motor skills,"CVN-AD mice [4]; at the doses used (0.3, 30 mg/kg)",no toxic effect
same,Efficacy: clearance of trypanosomes,[5]; [10],Prolonged clearance
same,Efficacy: confirmed cured,[5]; [10],44% confirmed
same,Efficacy: probable cure,[5]; [10],"cured, 45%"
same,Efficacy: clearance of brain trypanosomes,[5]; [11],Partial clearance of
same,Efficacy: death,[5]; [11],weakness). No
same,Efficacy: signs/symptoms of trypanosomiasis,[5]; [11],Reduced
same,effective dosage for successful treatment of trypanosomiasis,[5]; intravenous (IV),14800 mg/m2/d
same,effective dosage for successful treatment of trypanosomiasis,[5]; orally,14800 mg/m2/d
same,Other toxicity detected: vomiting/diarrhea,"Normal volunteers; 0.5-3 g/m^2/d oral, n = 13",Not study limiting
same,"dose above which ototoxicity is dose dependent, increasing toxicity","Normal volunteers; 0.5-3 g/m^2/d oral, n = 13",(12%); >1 g/m^2/d is
same,Ototoxicity,"Normal volunteers; 0.5 g/m^2/d oral, same as placebo (12%)",(9%) same as placebo
same,dose with mild reversible ototoxicity (no adverse event grade assigned),Normal volunteers; [12],1000 mg/m^2/d
same,Ototoxicity,melanoma [6]; [13],Ototoxicity (10%)
same,Ototoxicity trend with dose and duration,melanoma [6]; [13],Increasing with dose
same,dose with mild ototoxicity,melanoma [6]; oral delivery [Croghan M K],2000 mg/m^2/d
same,Other toxicity detected (low grade),melanoma [7],67% (low grade)
same,"Ototoxicity, % of treated subjects",melanoma [7],Ototoxicity in 50% of
same,"Ototoxicity, subjects affected",melanoma [7],(12/24)
same,Brain-based toxicity: deaths,"humans [8]; 14. g/m^2/d IV, n = 1055",15 deaths
same,Brain-based toxicity: seizures,"humans [8]; 14. g/m^2/d IV, n = 1055",(4%)
same,Other toxicity detected: abdominal pain,"humans [8]; 14. g/m^2/d IV, n = 1055","pain (37.7%),"
same,Other toxicity detected: headache,"humans [8]; 14. g/m^2/d IV, n = 1055","(31.2%),"
same,Other toxicity detected: diarrhea,"humans [8]; 14.8 g/m^2/d ORAL, n = 25",(58.3%)
same,Other toxicity detected: headache,"humans [8]; 14.8 g/m^2/d ORAL, n = 25","(16.7%),"
same,"Other toxicity detected, subjects affected",Metastatic liver; 0.5 and 1 g/m^2/d IV,0/3) at 0.5 and 1 g/m^2/d
same,"Ototoxicity, subjects affected",Metastatic liver; 0.5 and 1 g/m^2/d IV,Ototoxicity (0/3) at 0.5
same,"Other toxicity detected, subjects affected",Metastatic liver; 2 g/m^2/d IV,(0/3) at 2 g/m^2/d
same,"Ototoxicity, subjects affected",Metastatic liver; 2 g/m^2/d IV,Ototoxicity (3/3) at 2 g/m^2/d
same,dose with dose limiting ototoxicity,Metastatic liver; [12],1500 mg/m^2/d
